In brackets after ≈: the same amount, converted by molar mass. Each block holds one compound with its values, some of them ahead of it.
What was measured:
Assay in all cases: microbe, parasite or virus in culture
[1] = system: K. pneumoniae (ATCC 43816); type: cell-based, Klebsiella pneumoniae; details: Klebsiella pneumoniae, ATCC43816, 15 replicates in three independent assays
Procedure: (§1) The antimicrobial activities of peptides were evaluated against the Gram-positive bacteria, S. aureus (ATCC 6538), methicillin-resistant Staphylococcus aureus (MRSA) (NCTC 12493), Enterococcus faecalis (E. faecalis) (NCTC 12697); the Gram-negative bacteria, E. coli (ATCC CRM 8739), Klebsiella pneumoniae (K. pneumoniae) (ATCC 43816), Pseudomonas aeruginosa (P. aeruginosa) (ATCC CRM 9027); and the yeast, Candida albicans (C. albicans) (ATCC CRM 10231). Clinical isolates of MRSA (B042 V2E1 A), E. coli (ATCC BAA-2340), K. pneumoniae (ATCC BAA-1705), and P. aeruginosa (B004 V2S2 B) were also used to determine their antimicrobial activities. The suspension of microorganisms in the logarithmic growth phase with a specific final density (Gram-negative and Gram-positive bacteria: 5 × 10^5 CFU/mL; yeast: 1 × 10^6 CFU/mL) was incubated with different peptide concentrations from 1 µM to 512 µM at 37 °C for 24 h. PBS was used as the negative control, and norfloxacin and amphotericin B were selected as the positive control for bacteria and yeast, respectively. Since the Norfloxacin had weak activities against P. aeruginosa (B004 V2S2 B) and K. pneumoniae (ATCC BAA 1705), gentamicin was used as the positive control for these two bacterial strains. The absorbance of each well was obtained using a microplate reader (EL808, Biolise BioTek, Winooski, VT, USA) set at 550 nm wavelength. The MIC value was the lowest concentration of a peptide that inhibits visible bacterial growth. Once the MIC values were determined, an aliquot from the bacterial culture exposed to the peptide at or above its MIC value was inoculated on a Mueller Hinton agar (MHA) and was incubated at 37 for 18 h. The MBC value was the lowest concentration of a peptide that kills 99.9% of bacteria.

[2] = system: MRSA (B042 V2E1 A); type: cell-based, methicillin-resistant Staphylococcus aureus; details: Staphylococcus aureus, MRSA, clinical strain, 15 replicates in three independent assays
Procedure: as §1

[3] = system: MRSA (NCTC 12493); type: cell-based, methicillin-resistant Staphylococcus aureus; details: Staphylococcus aureus, 15 replicates in three independent assays
Procedure: as §1

[4] = system: E. coli (ATCC BAA-2340); type: cell-based, Escherichia coli; details: Escherichia coli, ATCCBAA2340, clinical strain, 15 replicates in three independent assays
Procedure: as §1

[5] = system: E. coli (ATCC CRM 8739); type: cell-based, Escherichia coli; details: Escherichia coli, 15 replicates in three independent assays
Procedure: as §1

[6] = system: S. aureus (ATCC 6538); type: cell-based, Staphylococcus aureus; details: Staphylococcus aureus, ATCC6538, 15 replicates in three independent assays
Procedure: as §1

[7] = system: P. aeruginosa (ATCC CRM 9027); type: cell-based, Pseudomonas aeruginosa; details: Pseudomonas aeruginosa, 15 replicates in three independent assays
Procedure: as §1

[8] = system: E. faecalis (NCTC 12697); type: cell-based, Enterococcus faecalis; details: Enterococcus faecalis, NCTC12697, 15 replicates in three independent assays
Procedure: as §1

[9] = system: C. albicans (ATCC CRM 10231); type: cell-based, Candida albicans; details: 15 replicates in three independent assays
Procedure: as §1

[10] = system: K. pneumoniae (ATCC BAA-1705); type: cell-based, Klebsiella pneumoniae; details: Klebsiella pneumoniae, ATCCBAA1705, clinical strain, 15 replicates in three independent assays
Procedure: as §1

[11] = system: P. aeruginosa (B004 V2S2 B); type: cell-based, Pseudomonas aeruginosa; details: Pseudomonas aeruginosa, clinical strain, 15 replicates in three independent assays
Procedure: as §1

[12] = 5 × 10^5 CFU/mL, 37 °C, 24 h, 1-512 µM, absorbance 550 nm, read-out: MIC
[13] = aliquot plated on MHA, 18 h, kills 99.9%, read-out: MBC

- MIC [1, 12]: 2 µM (≈ 0.639 µg/mL)
- MIC [2, 12]: 2 µM (≈ 0.639 µg/mL)
- MIC [3, 12]: 2 µM (≈ 0.639 µg/mL)
- MIC [4, 12]: 2 µM (≈ 0.639 µg/mL)
- MIC [5, 12]: 1 µM (≈ 0.319 µg/mL)
- MIC [6, 12]: 2 µM (≈ 0.639 µg/mL)
- MIC [7, 12]: 2 µM (≈ 0.639 µg/mL)
- MIC [8, 12]: 4 µM (≈ 1.28 µg/mL)
SMILES: CCn1cc(C(=O)O)c(=O)c2cc(F)c(N3CCNCC3)cc21 [Norfloxacin, reference compound]
- MBC [1, 13]: 2 µM (≈ 0.639 µg/mL)
- MBC [2, 13]: 2 µM (≈ 0.639 µg/mL)
- MBC [3, 13]: 2 µM (≈ 0.639 µg/mL)
- MBC [4, 13]: 2 µM (≈ 0.639 µg/mL)
- MBC [5, 13]: 1 µM (≈ 0.319 µg/mL)
- MBC ([6]; aliquot plated on MHA, 18 h, kills 99.9% of bacteria, read-out: MBC): 2 µM (≈ 0.639 µg/mL)
- MBC [7, 13]: 2 µM (≈ 0.639 µg/mL)
- MBC [8, 13]: 4 µM (≈ 1.28 µg/mL)

- MIC ([9]; yeast 1 × 10^6 CFU/mL, 37 °C, 24 h, 1-512 µM, absorbance 550 nm, read-out: MIC): 4 µM (≈ 3.7 µg/mL)
SMILES: C[C@@H]1[C@H](O)[C@@H](C)/C=C/C=C/C=C/C=C/C=C/C=C/C=C/[C@H](O[C@@H]2O[C@H](C)[C@@H](O)[C@H](N)[C@@H]2O)C[C@@H]2O[C@](O)(C[C@@H](O)C[C@@H](O)[C@H](O)CC[C@@H](O)C[C@@H](O)CC(=O)O[C@H]1C)C[C@H](O)[C@H]2C(=O)O [amphotericin B, reference compound]
- MBC ([9]; Candida albicans, aliquot plated on MHA, 18 h, kills 99.9%, read-out: MBC): 4 µM (≈ 3.7 µg/mL)

- MIC [10, 12]: 2 µM (≈ 0.955 µg/mL)
- MIC [11, 12]: 1 µM (≈ 0.478 µg/mL)
SMILES: CNC(C)C1CCC(N)C(OC2C(N)CC(N)C(OC3OCC(C)(O)C(NC)C3O)C2O)O1 (stereo not shown) [Gentamicin, reference compound]
- MBC [10, 13]: 2 µM (≈ 0.955 µg/mL)
- MBC [11, 13]: 1 µM (≈ 0.478 µg/mL)
